Laboratory results published in US20260325685A1, “Radiopharmaceutical Compositions Targeting Carbonic Anhydrase IX and Uses Thereof” (RayzeBio, Inc., priority 2023, published 2026).
Like-named read-outs stand apart in the source and are kept apart here.

Columns and labels:
[1] = molecular target: T1, human CA-IX (Homo sapiens, UniProt Q16790); test: Surface Plasmon Resonance (SPR) binding kinetics to recombinant human CA-IX (Biacore 8K, single-cycle kinetics, 1:1 binding model)
T1 construct: purchased Acro CA9-H82E3
In short: (§1)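 Proteins were captured on streptavidin chips at 1200-1800 RU (CA-IX 180 s, CA-XII 75 s injection). Compound was run at 9 concentrations (100-0.39 nM) in PBS-P+ pH 7.4 with 1% DMSO, 120 s association, 1200 s dissociation, 25° C. Rate constants came from reference- and DMSO-corrected curves.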

[2] = molecular target: T2, human CA-XII (Homo sapiens, UniProt O43570); test: Surface Plasmon Resonance (SPR) binding kinetics to recombinant human CA-XII (Biacore 8K, single-cycle kinetics, 1:1 binding model)
T2 construct: purchased Creative BioMart CA12-261H
T2 sequence (O43570 25-354): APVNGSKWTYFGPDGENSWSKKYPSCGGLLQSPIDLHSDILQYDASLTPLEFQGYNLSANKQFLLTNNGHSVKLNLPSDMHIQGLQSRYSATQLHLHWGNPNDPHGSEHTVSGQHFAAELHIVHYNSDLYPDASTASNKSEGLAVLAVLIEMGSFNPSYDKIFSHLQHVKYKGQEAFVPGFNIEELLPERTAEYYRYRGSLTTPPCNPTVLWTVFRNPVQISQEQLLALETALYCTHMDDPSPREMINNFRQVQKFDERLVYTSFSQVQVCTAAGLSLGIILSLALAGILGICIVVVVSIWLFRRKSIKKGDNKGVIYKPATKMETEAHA
In short: as §1

[3] = Chelated Metal: Lu-175; SPR, 25° C., pH 7.4; read-out: CAIX KD
[4] = Chelated Metal: Lu-175, 25° C., pH 7.4, read-out: CAXII KD
[5] = read-out: CAIX KD; Chelated Metal: Lu-175; SPR, 25° C., pH 7.4
[6] = read-out: CAXII KD, Chelated Metal: Lu-175, 25° C., pH 7.4

Row | Compound | Kd [1, 3] [nM] | Kd [2, 4] [nM] | Kd [1, 5] [nM] | Kd [2, 6] [nM]
1 | CC(CCCC(=O)N1CCC(C(=O)O)(C(=O)NCC(=O)N2CCN(C(=O)CN3CCN(CC(=O)O)CCN(CC(=O)O)CCN(CC(=O)O)CC3)C[C@H]2C(=O)NCCn2cc(C34CC(C(=O)Nc5nnc(S(N)(=O)=O)s5)(C3)C4)nn2)CC1)(c1ccc(O)cc1)c1ccc(O)cc1.[Lu+3] [Compound 112.18] | 1 to 2.5 | > 10 | – | –
2 | NS(=O)(=O)c1nnc(NC(=O)C23CC(c4cn(CCNC(=O)[C@@H]5CN(C(=O)CN6CCN(CC(=O)O)CCN(CC(=O)O)CCN(CC(=O)O)CC6)CCN5C(=O)CNC(=O)C5(C(=O)O)CCN(C(=O)CCCCc6ccc(I)cc6)CC5)nn4)(C2)C3)s1.[Lu+3] [Compound 112.19] | < 1 | > 10 | – | –
3 | NS(=O)(=O)c1nnc(NC(=O)C23CC(c4cn(CCNC(=O)[C@@H]5CN(C(=O)CN6CCN(CC(=O)O)CCN(CC(=O)O)CCN(CC(=O)O)CC6)CCN5C(=O)CNC(=O)C5(C(=O)O)CCN(C(=O)c6ccc(C7CC7)nn6)CC5)nn4)(C2)C3)s1.[Lu+3] [Compound 112] | – | – | 2.5 to 10 | > 10
4 | NC(=O)C1(C(=O)NCC(=O)N2CCN(C(=O)CN3CCN(CC(=O)O)CCN(CC(=O)O)CCN(CC(=O)O)CC3)C[C@H]2C(=O)NCCn2cc(C34CC(C(=O)Nc5nnc(S(N)(=O)=O)s5)(C3)C4)nn2)CCN(C(=O)c2ccc(C3CC3)nn2)CC1.[Lu+3] [Compound 113] | – | – | 2.5 to 10 | > 10
5 | NS(=O)(=O)c1nnc(NC(=O)C23CC(c4cn(C[C@H]5CN(C(=O)CN6CCN(CC(=O)O)CCN(CC(=O)O)CCN(CC(=O)O)CC6)CCN5C(=O)C[C@H](NC(=O)[C@@H]5COCCN5C(=O)Cc5n[nH]c6ccccc56)C(=O)O)nn4)(C2)C3)s1.[Lu+3] [Compound 114.1] | 1 to 2.5 | > 10 | – | –
6 | NS(=O)(=O)c1nnc(NC(=O)C23CC(c4cn(C[C@H]5CN(C(=O)CN6CCN(CC(=O)O)CCN(CC(=O)O)CCN(CC(=O)O)CC6)CCN5C(=O)[C@@H]5COCCN5C(=O)Cc5n[nH]c6ccccc56)nn4)(C2)C3)s1.[Lu+3] [Compound 114.2] | 1 to 2.5 | > 10 | – | –
7 | NS(=O)(=O)c1nnc(NC(=O)C23CC(c4cn(C[C@H]5CN(C(=O)CN6CCN(CC(=O)O)CCN(CC(=O)O)CCN(CC(=O)O)CC6)CCN5C(=O)[C@@H]5COCCN5C(=O)CCc5n[nH]c6ccccc56)nn4)(C2)C3)s1.[Lu+3] [Compound 114.3] | 1 to 2.5 | > 10 | – | –
8 | CC(CCC(=O)N1CCOC[C@H]1C(=O)N[C@@H](CC(=O)N1CCN(C(=O)CN2CCN(CC(=O)O)CCN(CC(=O)O)CCN(CC(=O)O)CC2)C[C@@H]1Cn1cc(C23CC(C(=O)Nc4nnc(S(N)(=O)=O)s4)(C2)C3)nn1)C(=O)O)(c1ccc(O)cc1)c1ccc(O)cc1.[Lu+3] [Compound 114] | – | – | 1 to 2.5 | > 10
9 | NS(=O)(=O)c1nnc(NC(=O)C23CC(c4cn(C[C@H]5CN(C(=O)CN6CCN(CC(=O)O)CCN(CC(=O)O)CCN(CC(=O)O)CC6)CCN5c5nccc(NCCc6n[nH]c7ccccc67)n5)nn4)(C2)C3)s1.[Lu+3] [Compound 115] | – | – | 2.5 to 10 | > 10
10 | CC(CCC(=O)N[C@@H](CC(=O)N[C@@H](CC(=O)NC1(CCCCn2cc(CCCCC(=O)Nc3nnc(S(N)(=O)=O)s3)nn2)CCN(C(=O)OCCOCCNC(=O)CN2CCN(CC(=O)O)CCN(CC(=O)O)CCN(CC(=O)O)CC2)CC1)C(=O)O)C(=O)O)(c1ccc(O)cc1)c1ccc(O)cc1.[Lu+3] [Compound 116.1] | 1 to 2.5 | 2.5 to 10 | – | –
11 | CC(CCC(=O)N[C@@H](CC(=O)N[C@@H](CC(=O)NC1(CCCCn2cc(CCCC(=O)Nc3nnc(S(N)(=O)=O)s3)nn2)CCN(C(=O)OCCOCCNC(=O)CN2CCN(CC(=O)O)CCN(CC(=O)O)CCN(CC(=O)O)CC2)CC1)C(=O)O)C(=O)O)(c1ccc(O)cc1)c1ccc(O)cc1.[Lu+3] [Compound 116.2] | 1 to 2.5 | 2.5 to 10 | – | –
12 | CC(CCC(=O)N[C@@H](CC(=O)N[C@@H](CC(=O)NC1(CCCCn2cc(CCC(=O)Nc3nnc(S(N)(=O)=O)s3)nn2)CCN(C(=O)OCCOCCNC(=O)CN2CCN(CC(=O)O)CCN(CC(=O)O)CCN(CC(=O)O)CC2)CC1)C(=O)O)C(=O)O)(c1ccc(O)cc1)c1ccc(O)cc1.[Lu+3] [Compound 116.4] | 2.5 to 10 | > 10 | – | –
13 | CC(CCC(=O)N[C@@H](CC(=O)N[C@@H](CC(=O)NC1(CCCCn2cc(CCCC(=O)Nc3nnc(S(N)(=O)=O)s3)nn2)CCN(C(=O)CN2CCN(CC(=O)O)CCN(CC(=O)O)CCN(CC(=O)O)CC2)CC1)C(=O)O)C(=O)O)(c1ccc(O)cc1)c1ccc(O)cc1.[Lu+3] [Compound 116] | – | – | 1 to 2.5 | 2.5 to 10
14 | CC(CCCC(=O)N1CCOC[C@H]1C(=O)N[C@@H](CC(=O)NC1(C(=O)NCCn2cc(C34CC(C(=O)Nc5nnc(S(N)(=O)=O)s5)(C3)C4)nn2)CCN(C(=O)CN2CCN(CC(=O)O)CCN(CC(=O)O)CCN(CC(=O)O)CC2)CC1)C(=O)O)(c1ccc(O)cc1)c1ccc(O)cc1.[Lu+3] [Compound 117.3] | < 1 | > 10 | – | –
15 | CC(CCCC(=O)N1CCC(C(N)=O)(C(=O)NCC(=O)NC2(C(=O)NCCn3cc(C45CC(c6cn7nc(S(N)(=O)=O)sc7n6)(C4)C5)nn3)CCN(C(=O)CN3CCN(CC(=O)O)CCN(CC(=O)O)CCN(CC(=O)O)CC3)CC2)CC1)(c1ccc(O)cc1)c1ccc(O)cc1.[Lu+3] [Compound 117.5] | < 1 | 2.5 to 10 | – | –
16 | CC(CCCC(=O)N1CCC(C(N)=O)(C(=O)NCC(=O)NC2(C(=O)NCCn3cc(C45CCC(C(=O)Nc6nnc(S(N)(=O)=O)s6)(CC4)CC5)nn3)CCN(C(=O)CN3CCN(CC(=O)O)CCN(CC(=O)O)CCN(CC(=O)O)CC3)CC2)CC1)(c1ccc(O)cc1)c1ccc(O)cc1.[Lu+3] [Compound 117.6] | < 1 | 1 to 2.5 | – | –
17 | Cc1cc(C(=O)Nc2nnc(S(N)(=O)=O)s2)ccc1-c1cn(CCNC(=O)C2(NC(=O)CNC(=O)C3(C(N)=O)CCN(C(=O)CCCC(C)(c4ccc(O)cc4)c4ccc(O)cc4)CC3)CCN(C(=O)CN3CCN(CC(=O)O)CCN(CC(=O)O)CCN(CC(=O)O)CC3)CC2)nn1.[Lu+3] [Compound 117.7] | < 1 | > 10 | – | –
18 | CC(CCCC(=O)N1CCC(C(N)=O)(C(=O)NCC(=O)NC2(C(=O)NCCn3cc(COc4ccc5nc(S(N)(=O)=O)sc5c4)nn3)CCN(C(=O)CN3CCN(CC(=O)O)CCN(CC(=O)O)CCN(CC(=O)O)CC3)CC2)CC1)(c1ccc(O)cc1)c1ccc(O)cc1.[Lu+3] [Compound 117.8] | < 1 | > 10 | – | –
19 | CC(CCC(=O)N[C@@H](CC(=O)N[C@@H](CC(=O)NC1(C(=O)NCCn2cc(C34CC(C(=O)Nc5nnc(S(N)(=O)=O)s5)(C3)C4)nn2)CCN(C(=O)CN2CCN(CC(=O)O)CCN(CC(=O)O)CCN(CC(=O)O)CC2)CC1)C(=O)O)C(=O)O)(c1ccc(O)cc1)c1ccc(O)cc1.[Lu+3] [Compound 117] | – | – | 1 to 2.5 | > 10
20 | NS(=O)(=O)c1nnc(CC(=O)C23CC(c4cn(CCNC(=O)[C@H]5COCCN5C(=O)CC[C@H](NC(=O)[C@H](CCCCNC(=O)CN5CCN(CC(=O)O)CCN(CC(=O)O)CCN(CC(=O)O)CC5)NC(=O)CCC5CCCCC5)C(=O)O)nn4)(C2)C3)s1.[Lu+3] [Compound 118.1] | 1 to 2.5 | > 10 | – | –
21 | CC(CCC(=O)N1CCN(C(=O)CN2CCN(CC(=O)O)CCN(CC(=O)O)CCN(CC(=O)O)CC2)C[C@H]1C(=O)N[C@@H](CC(=O)N1CCOC[C@@H]1Cn1cc(C23CC(C(=O)Nc4nnc(S(N)(=O)=O)s4)(C2)C3)nn1)C(=O)O)(c1ccc(O)cc1)c1ccc(O)cc1.[Lu+3] [Compound 118.2] | 1 to 2.5 | > 10 | – | –
22 | NS(=O)(=O)c1nnc(NC(=O)C23CC(c4cn(CCNC(=O)[C@H]5CNCCN5C(=O)[C@H](CCCCNC(=O)CN5CCN(CC(=O)O)CCN(CC(=O)O)CCN(CC(=O)O)CC5)NC(=O)CC[C@H](NC(=O)c5n[nH]c6ccccc56)C(=O)O)nn4)(C2)C3)s1.[Lu+3] [Compound 118.3] | 2.5 to 10 | 2.5 to 10 | – | –
23 | NS(=O)(=O)c1nnc(CC(=O)C23CC(c4cn(CCNC(=O)[C@H]5COCCN5C(=O)CC[C@H](NC(=O)[C@H](CCCCNC(=O)CN5CCN(CC(=O)O)CCN(CC(=O)O)CCN(CC(=O)O)CC5)NC(=O)c5n[nH]c6ccccc56)C(=O)O)nn4)(C2)C3)s1.[Lu+3] [Compound 118.4] | 1 to 2.5 | > 10 | – | –
24 | NS(=O)(=O)c1nnc(NC(=O)C23CC(c4cn(CCNC(=O)[C@H]5CNCCN5C(=O)[C@H](CCCCNC(=O)CN5CCN(CC(=O)O)CCN(CC(=O)O)CCN(CC(=O)O)CC5)NC(=O)CC[C@H](NC(=O)CCC5CCCCC5)C(=O)O)nn4)(C2)C3)s1.[Lu+3] [Compound 118] | – | – | 1 to 2.5 | 2.5 to 10
25 | CC(CCC(=O)N[C@@H](CC(=O)N[C@@H](CC(=O)N1CCN(C(=O)CN2CCN(CC(=O)O)CCN(CC(=O)O)CCN(CC(=O)O)CC2)C[C@H]1C(=O)NCC(=O)N1CCC2(CC1)CC(C(=O)Nc1nnc(S(N)(=O)=O)s1)C2)C(=O)O)C(=O)O)(c1ccc(O)cc1)c1ccc(O)cc1.[Lu+3] [Compound 119] | – | – | 2.5 to 10 | > 10
26 | CC(CCC(=O)N[C@@H](CC(=O)N[C@@H](CC(=O)N[C@@H](CCCCN1CCN(c2ccc(C(=O)Nc3nnc(S(N)(=O)=O)s3)cc2)CC1)C(=O)NCCOCCOCCNC(=O)CN1CCN(CC(=O)O)CCN(CC(=O)O)CCN(CC(=O)O)CC1)C(=O)O)C(=O)O)(c1ccc(O)cc1)c1ccc(O)cc1.[Lu+3] [Compound 121.1] | 1 to 2.5 | > 10 | – | –
27 | CC(CCC(=O)N[C@@H](CC(=O)N[C@@H](CC(=O)N[C@@H](CCCCN1CCN(c2ccc(C(=O)Nc3nnc(S(N)(=O)=O)s3)cc2)CC1)C(=O)NCCOCCOCCNC(=O)CN1CCN(CC(=O)O)CCN(CC(=O)O)CCN(CC(=O)O)CC1)C(=O)O)C(=O)O)(c1ccc(O)cc1)c1ccc(O)cc1.[Lu+3] [Compound 121] | – | – | < 1 | > 10
